Earlier results as cited in US12458625B2, “Methods and compositions for soft anticholinergic esters” (Bodor Laboratories, Inc., priority 2015, dated 2025).

Details: solid oral form

C[N+]1(C)CCC(OC(=O)C(O)(c2ccccc2)C2CCCC2)C1 (stereo not drawn) [glycopyrrolate]
reducing drooling (children): effective in reducing drooling | dropped out of the study because of adverse effects to the medication (children, most with cerebral palsy): over 20% | children affected by adverse events (most with cerebral palsy): 69%
